Test results: the NIST ThermoML archive (doi:10.1016/j.fluid.2016.05.004)
± gives the expanded uncertainty stated by the source.

Conditions: Liquid, Closed cell (Static) method

Row | vapor or sublimation pressure (233.19 K) | vapor or sublimation pressure (243.22 K) | vapor or sublimation pressure (253.21 K) | vapor or sublimation pressure (263.21 K) | SMILES | vapor or sublimation pressure (273.19 K) | vapor or sublimation pressure (233.17 K) | vapor or sublimation pressure (243.24 K) | vapor or sublimation pressure (253.22 K) | vapor or sublimation pressure (263.24 K) | vapor or sublimation pressure (273.18 K) | vapor or sublimation pressure (243.23 K) | vapor or sublimation pressure (253.14 K) | vapor or sublimation pressure (263.2 K)
1 | 1009 ± 12 kPa | 1432 ± 12 kPa | 1970 ± 13 kPa | 2645 ± 15 kPa | O=C=O [carbon dioxide] | 3473 ± 16 kPa | – | – | – | – | – | – | – | –
2 | – | – | – | – | FC(F)(F)C1(F)OC1(F)F (stereo not given) [2,2,3-trifluoro-3-(trifluoromethyl)oxirane] | – | 58 ± 10 kPa | 95 ± 10 kPa | 145 ± 10 kPa | 216 ± 10 kPa | 310 ± 10 kPa | – | – | –
3 | – | – | – | – | FC(F)=C(F)C(F)(F)F [hexafluoropropene] | 334 ± 10 kPa | 64 ± 10 kPa | – | – | – | – | 102 ± 10 kPa | 157 ± 10 kPa | 233 ± 10 kPa
